One experiment concerns both receptor types. To be noted: Tudhope et al., Eur. J. Pharmacol. (1994) 264, 317-323; cited from earlier work.
Experiment [1] addresses T1, ^3 H-LTD4 binding to guinea-pig lung membranes (Cavia porcellus, UniProt Q2NNR5).
T1 construct: from tissue; host or cells: guinea-pig lung membranes
T1 sequence (Q2NNR5 1-340): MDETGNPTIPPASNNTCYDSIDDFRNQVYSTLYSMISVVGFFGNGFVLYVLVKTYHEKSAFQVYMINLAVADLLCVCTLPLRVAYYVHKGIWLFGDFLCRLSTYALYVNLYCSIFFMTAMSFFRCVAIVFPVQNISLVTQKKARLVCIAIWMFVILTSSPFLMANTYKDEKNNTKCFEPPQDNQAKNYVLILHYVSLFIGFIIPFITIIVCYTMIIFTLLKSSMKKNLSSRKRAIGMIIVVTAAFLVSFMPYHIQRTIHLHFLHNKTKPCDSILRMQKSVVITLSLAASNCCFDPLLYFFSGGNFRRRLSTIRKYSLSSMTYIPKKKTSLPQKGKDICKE
Kind of experiment: inhibition of ^3 H-LTD4 binding to guinea-pig lung membranes. To be noted: for Ki: read-out: pKi values for the inhibition of ^3 H-LTD4 binding to guinea-pig lung membranes (converted). The source says: (§1) The representative preparations used to evaluate these compounds were the inhibition of ^3 H-LTD4 binding to guinea-pig lung membranes, as described in EP 494621, and the inhibition of both LTD4 -induced and LTC4 -induced contractions of guinea-pig tracheae as described by Tudhope et al., Eur. J. Pharmacol (1994) 264, 317-323.

The target in experiment [2] is T2, LTD4 -induced contractions of guinea-pig trachea (Cavia porcellus, UniProt Q2NNR5).
T2 construct: contractions of guinea-pig tracheae; from tissue; host or cells: guinea-pig trachea
T2 sequence (Q2NNR5 1-340): T1 sequence (Q2NNR5 1-340)
Put plainly: inhibition of LTD4-induced contractions of guinea-pig trachea. Format: cell-based. To be noted: for Kb: read-out: pKB values for the inhibition of LTD4 -induced contractions of guinea-pig trachea (converted).
Text: as §1

Experiment [3] concerns the target T3, LTC4 -induced contractions of guinea-pig trachea (Cavia porcellus, UniProt H0VW05).
T3 construct: contractions of guinea-pig tracheae; from tissue; host or cells: guinea-pig trachea
T3 sequence (H0VW05 1-317): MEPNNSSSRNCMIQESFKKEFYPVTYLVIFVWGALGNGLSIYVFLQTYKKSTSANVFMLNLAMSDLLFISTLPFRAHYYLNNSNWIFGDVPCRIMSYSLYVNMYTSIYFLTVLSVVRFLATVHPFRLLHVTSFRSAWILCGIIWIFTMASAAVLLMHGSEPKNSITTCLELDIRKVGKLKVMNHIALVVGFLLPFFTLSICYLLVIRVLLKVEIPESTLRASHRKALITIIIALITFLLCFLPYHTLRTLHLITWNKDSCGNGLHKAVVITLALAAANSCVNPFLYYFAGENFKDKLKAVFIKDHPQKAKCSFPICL
Kind of experiment: inhibition of LTC4-induced contractions of guinea-pig trachea. To be noted: read-out: pKB values for the inhibition of LTC4 -induced contractions of guinea-pig trachea (converted). It is filed as cell-based.
Text: as §1

Turning to `CCCCC/C=C\C\C=C/C=C/C=C/[C@@H](Sc1ccc(C(=O)O)cc1)[C@@H](O)CCCC(=O)O` [Compound A], the “activity at both receptor types” value in the experiment with both receptor types is “comparable activity at both receptor types”. Regarding `O=C(O)CCCNC(=O)c1cc(C(=O)O)ccc1OCCCc1ccc(OCCCCOc2ccccc2)cc1` [Example 4], the Ki in experiment [1] was 794 nM. Besides, the Kb in experiment [2] is 126 nM; in experiment [3], 63.1 nM.

Regarding `O=C(O)CNC(=O)c1cc(C(=O)O)ccc1OCCCc1ccc(OCCCCOc2ccccc2)cc1` [Example 5], the Ki in experiment [1] was 398 nM. The Kb was 79.4 nM in experiment [2] and 1260 nM in experiment [3]. As to `O=C(O)CCNC(=O)c1cc(C(=O)O)ccc1OCCCc1ccc(OCCCCOc2ccccc2)cc1` [Example 6], in experiment [1], the Ki is 251 nM. Moreover, the Kb in experiment [2] and in experiment [3] was 79.4 nM in each case. Consider `O=C(O)CCCCNC(=O)c1cc(C(=O)O)ccc1OCCCc1ccc(OCCCCOc2ccccc2)cc1` [Example 7], for which the “pKi values for the inhibition of ^3 H-LTD4 binding to guinea-pig lung membranes” value (“pKi values for the inhibition” below) in experiment [1] is 5.7. Further, in experiment [2], the “pKB values for the inhibition of LTD4 -induced contractions of guinea-pig trachea” value (“pKB values for the inhibition of LTD4” for short) was 6.6.

For `O=C(O)c1cccc(NC(=O)c2cc(C(=O)O)ccc2OCCCc2ccc(OCCCCOc3ccccc3)cc2)c1` [Example 8, N-(3-carboxyphenyl)-2-[3-{4-phenoxybutoxy}phenylpropoxy]-5-carboxybenzamide], the Kb in experiment [2] was 631 nM. For the compound `O=C(O)c1ccc(NC(=O)c2cc(C(=O)O)ccc2OCCCc2ccc(OCCCCOc3ccccc3)cc2)cc1` [Example 10], the Kb in experiment [2] was 316 nM; in experiment [3], 126 nM.

Take `O=C(O)CCCC(=O)Nc1cc(C(=O)O)ccc1OCCCc1ccc(OCCCCOc2ccccc2)cc1` [Example 11]: the Ki in experiment [1] is 1580 nM. In addition, the Kb is 251 nM in experiment [2] and 1000 nM in experiment [3]. Regarding `O=C(O)CCCCC(=O)Nc1cc(C(=O)O)ccc1OCCCc1ccc(OCCCCOc2ccccc2)cc1` [Example 12], the Ki in experiment [1] is 1000 nM. The Kb is 251 nM in experiment [2] and 501 nM in experiment [3]. Consider `O=C(O)CCC(=O)Nc1cc(C(=O)O)ccc1OCCCc1ccc(OCCCCOc2ccccc2)cc1` [Example 13], for which the Ki in experiment [1] was 1000 nM. Further, the Kb in experiment [2] is 126 nM.

For `O=C(O)CC(=O)Nc1cc(C(=O)O)ccc1OCCCc1ccc(OCCCCOc2ccccc2)cc1` [Example 14], the Ki in experiment [1] is 316 nM. Besides, the Kb in experiment [2] was 251 nM. With `O=C(O)CCCC(=O)Nc1cc(C(=O)O)ccc1OCCc1ccc(OCCCCOc2ccccc2)cc1` [Example 15], the “pKi values for the inhibition” value in experiment [1] is 5.3. Moreover, in experiment [2], the “pKB values for the inhibition of LTD4” value is listed as 6.4.

Turning to `O=C(O)COc1cc(C(=O)O)ccc1NC(=O)CCc1ccc(OCCCCOc2ccccc2)cc1` [Example 16], in experiment [1], the Ki was 50.1 nM. In addition, in experiment [2], the Kb was 50.1 nM.

Take `O=C(O)CCCOc1cc(C(=O)O)ccc1NC(=O)CCc1ccc(OCCCCOc2ccccc2)cc1` [Example 17]: in experiment [1], the Ki was 398 nM. Further, the Kb in experiment [2] was 251 nM. As for `O=C(O)CCCCCOc1cc(C(=O)O)ccc1NC(=O)CCc1ccc(OCCCCOc2ccccc2)cc1` [Example 18], the Ki in experiment [1] is 631 nM. In addition, in experiment [2], the Kb was 79.4 nM. In the case of `O=C(O)CCCSc1cc(C(=O)O)ccc1NC(=O)CCc1ccc(OCCCCOc2ccccc2)cc1` [Example 20], in experiment [2], the Kb was 316 nM. With `O=C(O)CCCC(=O)c1cc(C(=O)O)ccc1NC(=O)CCc1ccc(OCCCCOc2ccccc2)cc1` [Example 21], the Kb in experiment [2] was 31.6 nM. Consider `O=C(CCc1ccc(OCCCCOc2ccccc2)cc1)Nc1ccc(C(=O)O)cc1C(=O)O` [Example 22], for which the Ki in experiment [1] was 251 nM. The Kb in experiment [2] is 50.1 nM.

With `O=C(CCc1ccc(OCCCCOc2ccccc2)cc1)Nc1cc(C(=O)O)cc(C(=O)O)c1` [Example 23], in experiment [1], the Ki is 3160 nM. Moreover, the Kb in experiment [2] is 1260 nM. As for `O=C(CCCc1ccc(OCCCCOc2ccccc2)cc1)Nc1ccc(C(=O)O)cc1C(=O)O` [Example 24, 3-carboxy-4-([4-{4-phenoxybutoxy}phenyl]-1-oxobutyl)aminobenzoic acid], in experiment [1], the Ki is 501 nM. In experiment [2], the Kb was 50.1 nM. Take `O=C(CCCc1ccc(OCCCCOc2ccccc2)cc1)Nc1cc(C(=O)O)cc(C(=O)O)c1` [Example 25, 3-carboxy-5-([4-{4-phenoxybutoxy}phenyl]-1-oxobutyl)aminobenzoic acid]: in experiment [1], the Ki was 1580 nM. For the same compound, in experiment [2], the Kb was 1580 nM. In the case of `O=C(Cc1ccc(OCCCCOc2ccccc2)cc1)Nc1ccc(C(=O)O)cc1C(=O)O` [Example 26], in experiment [2], the Kb is 1260 nM. Turning to `CS(=O)(=O)Nc1ccc(OCCCc2ccc(OCCCCOc3ccccc3)cc2)c(C(=O)O)c1` [Example 29, 2-(3-[4-{4-phenoxybutoxy}phenyl]propoxy)-5-(methylsulfonylamino)benzoic acid], the Ki in experiment [1] was 2000 nM. Moreover, in experiment [2], the Kb was 2000 nM.

`O=C(O)c1cc(NS(=O)(=O)c2ccccc2)ccc1OCCCc1ccc(OCCCCOc2ccccc2)cc1` [Example 30, 2-(3-[4-{4-phenoxybutoxy}phenyl]propoxy)-5-(phenylsulfonylamino)benzoic acid]: in experiment [1], the Ki was 5010 nM. The Kb in experiment [2] was 20000 nM. Consider `CS(=O)(=O)Nc1ccc(OCCCc2ccc(OCCCCOc3ccccc3)cc2)c(C(=O)NCCC(=O)O)c1` [Example 31, 4-aza-5-(5-[methylsulfonylamino]-2-(3-[4-{4-phenoxybutoxy}phenyl]-propoxy)phenyl)-5-oxopentanoic acid], for which the Ki in experiment [1] is 316 nM. Further, the Kb in experiment [2] was 3980 nM.

With `O=C(O)CCC(=O)Nc1cc(C(=O)O)ccc1SCCc1ccc(OCCCCOc2ccccc2)cc1` [Example 32, 5-aza-5-(5-carboxy-2-(3-[4-{4-phenoxybutoxy}phenyl]-1-thiapropyl) -phenyl)-4-oxopentanoic acid], the Kb in experiment [2] was 316 nM. Consider `O=C(O)CCCC(=O)Nc1cc(C(=O)O)ccc1SCCc1ccc(OCCCCOc2ccccc2)cc1` [Example 33], for which the “pKB values for the inhibition of LTD4” value in experiment [2] stood at 6.6.

For the compound `CS(=O)(=O)Nc1ccc(SCCc2ccc(OCCCCOc3ccccc3)cc2)c(C(=O)NCCC(=O)O)c1` [Example 34, 5-aza-5-(5-methylsulfonylamino]-2-(3-[4-{4-phenoxybutoxy}phenyl]-1-thiapropyl)phenyl-4-oxopentanoic acid], the “pKi values for the inhibition” value in experiment [1] is on record as 5.7. The “pKB values for the inhibition of LTD4” value in experiment [2] was determined as 5.6. Consider `O=C(O)CCCNC(=O)c1cc(C(=O)O)ccc1OCCCc1cccc(OCCCCOc2ccccc2)c1` [Example 36, 5-aza-6-(5-carboxy-2-(3-[3-{4-phenoxybutoxy}phenyl]propoxy)phenyl)-6-oxohexanoic acid], for which the Ki in experiment [1] was 25100 nM.

The values above are taken from patent publication US5872280A, “Leukotriene antagonistic benzoic acid derivatives” (Bayer Aktiengesellschaft, priority 1995, dated 1999).
